From ChEMBL document CHEMBL1131686, “Synthesis and biological activities of topoisomerase I inhibitors, 6-N-amino analogues of NB-506” (Bioorg Med Chem Lett, 1999) come the findings set out here.

Bounds are passed on as bounds.

Data set [1] relates to P388. Briefly: Effect on the formation of protein-DNA complex in P388 cells K+/SDS method. The data set is classed as functional, Mus musculus.
The test system of data set [2] is MKN-45. Briefly: In vitro cytotoxicity (CTX) against human stomach cancer cells (MKN-45) using sulforhodamine B dye-staining method. The data set is classed as functional, cell-based.
In a further data set the test system is Mus musculus. Briefly: Cytotoxicity against human stomach cancer cells (MKN-45) implanted subcutaneously into a side flank of nude mice. The data set is classed as functional, Cancer cell lines.
The target of data set [3] is Protein kinase C alpha type (Homo sapiens, UniProt P17252). Briefly: In vitro activity evaluated against protein kinase C (using histone II-As as a substrate).
In data set [4] the test system is P388. As to the kind of experiment: In vitro cytotoxicity (CTX) against murine leukemia cells (P388) using colorimetric tetrazolium-formazan method. To be noted: Mus musculus. Format: functional, cell-based.
Data set [5] in a line: Ratio of LD10 to that of GID75 was determined; expressed as safety margin. The data set is classed as functional.
Data set [6] relates to MKN-45. As to the kind of experiment: Cytotoxicity against human stomach cancer cells (MKN-45) after intravenous administration (5 times/week for 2 weeks after tumor grew to 0.2 cme3 or larger). Format: functional, cell-based. To be noted: MKN-45, 336 h.
The nature of data set [7]: Lethal dose after intravenous administration (5 times/week for 2 weeks after tumor grew to 0.2 cme3 or larger) in mice. The data set is classed as toxicity. The settings on record: mouse, in vivo, 336 h.
The next data set concerns the target DNA topoisomerase II (Homo sapiens, UniProt P11388+Q02880). Briefly: In vitro activity against topoisomerase-2 mediated cleavage of supercoiled pBR322 plasmid DNA. The data set is classed as functional.
In another data set the target is T1, DNA topoisomerase 1 (Homo sapiens, UniProt P11387).
T1 sequence (P11387 whole entry): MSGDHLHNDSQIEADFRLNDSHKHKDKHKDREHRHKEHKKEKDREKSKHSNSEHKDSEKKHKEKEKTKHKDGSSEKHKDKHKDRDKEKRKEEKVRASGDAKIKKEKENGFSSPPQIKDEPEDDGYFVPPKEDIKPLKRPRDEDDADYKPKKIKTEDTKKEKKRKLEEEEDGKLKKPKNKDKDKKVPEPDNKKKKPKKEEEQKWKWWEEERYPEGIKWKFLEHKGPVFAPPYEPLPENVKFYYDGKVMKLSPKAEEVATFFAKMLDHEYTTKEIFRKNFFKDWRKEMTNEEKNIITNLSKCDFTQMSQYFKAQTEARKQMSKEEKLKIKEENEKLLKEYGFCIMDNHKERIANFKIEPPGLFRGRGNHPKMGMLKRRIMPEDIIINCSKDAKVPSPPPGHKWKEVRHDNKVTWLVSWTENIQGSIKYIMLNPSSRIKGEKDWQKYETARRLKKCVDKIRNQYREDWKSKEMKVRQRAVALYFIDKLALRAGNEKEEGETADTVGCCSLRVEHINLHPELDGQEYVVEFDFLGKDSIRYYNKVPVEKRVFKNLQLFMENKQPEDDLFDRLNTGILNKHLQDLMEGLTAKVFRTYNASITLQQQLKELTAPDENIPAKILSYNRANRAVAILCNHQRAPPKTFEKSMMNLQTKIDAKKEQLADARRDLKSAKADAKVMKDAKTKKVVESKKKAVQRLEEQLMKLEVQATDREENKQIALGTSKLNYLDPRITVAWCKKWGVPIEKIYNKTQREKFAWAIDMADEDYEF
Briefly: In vitro activity against topoisomerase-1 mediated cleavage of supercoiled pBR322 plasmid DNA. The data set is classed as functional.

The target in data set [8] is Epidermal growth factor receptor (Homo sapiens, UniProt P00533). Briefly: In vitro activity against Epidermal growth factor receptor (using poly(Glu4Tyr1) as a substrate).
Sequence of Epidermal growth factor receptor (P00533 whole entry): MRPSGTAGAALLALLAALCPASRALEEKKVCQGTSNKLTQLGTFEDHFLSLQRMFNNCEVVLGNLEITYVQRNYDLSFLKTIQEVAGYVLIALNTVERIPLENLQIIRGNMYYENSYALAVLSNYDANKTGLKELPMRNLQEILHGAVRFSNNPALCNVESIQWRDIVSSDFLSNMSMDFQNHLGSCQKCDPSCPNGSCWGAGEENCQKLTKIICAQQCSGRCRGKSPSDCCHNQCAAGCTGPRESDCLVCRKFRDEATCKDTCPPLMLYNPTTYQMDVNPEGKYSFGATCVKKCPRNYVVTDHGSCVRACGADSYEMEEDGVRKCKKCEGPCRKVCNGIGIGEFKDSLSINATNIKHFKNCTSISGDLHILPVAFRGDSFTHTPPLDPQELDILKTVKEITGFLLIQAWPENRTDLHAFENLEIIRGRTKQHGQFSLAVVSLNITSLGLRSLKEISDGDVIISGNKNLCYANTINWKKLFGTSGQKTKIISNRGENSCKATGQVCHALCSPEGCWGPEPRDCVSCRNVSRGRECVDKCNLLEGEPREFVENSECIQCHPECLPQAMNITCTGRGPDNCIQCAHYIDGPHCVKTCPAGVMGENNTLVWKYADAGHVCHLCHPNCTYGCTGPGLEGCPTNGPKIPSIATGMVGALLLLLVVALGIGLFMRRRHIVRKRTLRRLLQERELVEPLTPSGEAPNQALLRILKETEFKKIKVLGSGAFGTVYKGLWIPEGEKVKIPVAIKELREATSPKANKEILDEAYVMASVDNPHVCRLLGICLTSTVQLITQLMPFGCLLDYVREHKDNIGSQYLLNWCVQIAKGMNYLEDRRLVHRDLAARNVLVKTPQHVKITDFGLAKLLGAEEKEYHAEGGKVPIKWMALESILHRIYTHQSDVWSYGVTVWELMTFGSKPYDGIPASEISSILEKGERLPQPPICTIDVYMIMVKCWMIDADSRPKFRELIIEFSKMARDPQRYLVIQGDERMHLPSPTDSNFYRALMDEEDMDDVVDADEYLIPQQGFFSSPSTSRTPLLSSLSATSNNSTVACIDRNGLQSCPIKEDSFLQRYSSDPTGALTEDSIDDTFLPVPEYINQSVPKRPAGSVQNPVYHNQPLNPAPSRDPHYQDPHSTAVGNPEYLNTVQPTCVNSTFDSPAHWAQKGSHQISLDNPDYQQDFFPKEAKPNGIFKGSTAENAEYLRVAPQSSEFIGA

As to `O=C1c2c(c3c4cccc(O)c4n(C4OC(CO)C(O)C(O)C4O)c3c3[nH]c4c(O)cccc4c23)C(=O)N1NC(CO)CO` (stereo not given), in the data set on P388 [1], the EC200 was 0.45 µM. For the same molecule, the IC50 in the data set on MKN-45 [2] was 130 nM; in data set [3] it was above 200 µM; in the data set with P388 [4], 17 nM; with MKN-45 [6], 130 nM. This molecule also yielded a GID75 with Mus musculus of 78 mg/me2. Also, the Activity in data set [5] worked out at 5 Ratio. Moreover, in data set [7], the LD10 is on record as 390 mg/me2. Further, the EC50 at DNA topoisomerase II is above 50 µM; at DNA topoisomerase 1, 580 nM.

For the molecule `N#CCC(=O)NN1C(=O)c2c(c3c4cccc(O)c4n(C4OC(CO)C(O)C(O)C4O)c3c3[nH]c4c(O)cccc4c23)C1=O` (stereo not given), the EC200 in the data set on P388 [1] came to 20 µM. In addition, the IC50 with MKN-45 [2] was 1900 nM; in [3] it was 65 µM; with P388 [4], 490 nM; in [8], above 200 µM. For the same molecule, the EC50 on DNA topoisomerase II is above 50 µM; on DNA topoisomerase 1, 550 nM.

In the data set with P388 [1], `CC(=O)NN1C(=O)c2c(c3c4cccc(O)c4n(C4OC(CO)C(O)C(O)C4O)c3c3[nH]c4c(O)cccc4c23)C1=O` (stereo not given) registered an EC200 of 2 µM. Moreover, the IC50 was 260 nM in the data set with MKN-45 [2], 130 µM in [3], 150 nM with P388 [4] and above 200 µM in [8]. The values for the EC50 on DNA topoisomerase II and on DNA topoisomerase 1 were above 50 µM and 1000 nM, respectively.

In turn, `CS(=O)(=O)NN1C(=O)c2c(c3c4cccc(O)c4n(C4OC(CO)C(O)C(O)C4O)c3c3[nH]c4c(O)cccc4c23)C1=O` (stereo not given) came in with an EC200 with P388 [1] above 10 µM. For the same molecule, the IC50 was 270 nM in the data set on MKN-45 [2], above 200 µM in [3], 60 nM in the data set on P388 [4] and above 200 µM in data set [8]. The EC50 is above 50 µM at DNA topoisomerase II and 580 nM at DNA topoisomerase 1.

Molecule `O=C1c2c(c3c4cccc(O)c4n(C4OC(CO)C(O)C(O)C4O)c3c3[nH]c4c(O)cccc4c23)C(=O)N1NCCO` (stereo not given) returned an EC200 in the data set with P388 [1] of 0.3 µM. For the same molecule, the IC50 with MKN-45 [2] is 3 nM; in data set [3] it was above 200 µM; with P388 [4], 6 nM; in the data set on MKN-45 [6], 3 nM; in data set [8], above 200 µM. Also, in the data set with Mus musculus, the GID75 was determined as 270 mg/me2. Besides, the Activity in [5] worked out at 2.1 Ratio. In data set [7], this molecule showed an LD10 of 560 mg/me2. The figures for the EC50 on DNA topoisomerase II and on DNA topoisomerase 1 were above 50 µM and 430 nM, respectively.

Turning to `O=C(NN1C(=O)c2c(c3c4cccc(O)c4n(C4OC(CO)C(O)C(O)C4O)c3c3[nH]c4c(O)cccc4c23)C1=O)c1ccccn1` (stereo not given), the EC200 in the data set with P388 [1] was above 10 µM. For the same molecule, the IC50 in the data set on MKN-45 [2] is 2500 nM; in data set [3], 41 µM; in the data set with P388 [4], 470 nM; in [8], above 200 µM. Further, the EC50 at DNA topoisomerase II was above 50 µM; on DNA topoisomerase 1, 90 nM.

Turning to `N#CCCNN1C(=O)c2c(c3c4cccc(O)c4n(C4OC(CO)C(O)C(O)C4O)c3c3[nH]c4c(O)cccc4c23)C1=O` (stereo not given), the EC200 in the data set on P388 [1] was determined as 0.9 µM. Also, the IC50 was 20 nM in the data set on MKN-45 [2]; above 200 µM in data set [3]; 6 nM in the data set on P388 [4]; 20 nM in the data set with MKN-45 [6]; above 200 µM in data set [8]. Moreover, the GID75 in the data set with Mus musculus is 200 mg/me2. For the same molecule, in [5], the Activity came to 3.2 Ratio. The molecule further gave an LD10 in data set [7] of 640 mg/me2. Further, the results for the EC50 on DNA topoisomerase II and at DNA topoisomerase 1 were above 50 µM and 70 nM, respectively.

As for `O=C(O)CNN1C(=O)c2c(c3c4cccc(O)c4n(C4OC(CO)C(O)C(O)C4O)c3c3[nH]c4c(O)cccc4c23)C1=O` (stereo not given), the EC200 in the data set on P388 [1] is above 10 µM. Moreover, the IC50 in the data set on MKN-45 [2] is 2900 nM; in [3] it was 110 µM; with P388 [4], 800 nM; in data set [8] it was above 200 µM. Also, the concentration giving a half-maximal response (EC50) on DNA topoisomerase II was above 50 µM; at DNA topoisomerase 1 it was 9500 nM.

As to `CCCNN1C(=O)c2c(c3c4cccc(O)c4n(C4OC(CO)C(O)C(O)C4O)c3c3[nH]c4c(O)cccc4c23)C1=O` (stereo not given), the EC200 with P388 [1] was 6.3 µM. The IC50 amounted to 210 nM in the data set on MKN-45 [2], 65 µM in [3], 55 nM with P388 [4] and 59 µM in data set [8]. In addition, the EC50 is above 50 µM at DNA topoisomerase II and 1200 nM at DNA topoisomerase 1.

Molecule `CN(C)N1C(=O)c2c(c3c4cccc(O)c4n(C4OC(CO)C(O)C(O)C4O)c3c3[nH]c4c(O)cccc4c23)C1=O` (stereo not given) came in with an EC200 in the data set with P388 [1] above 10 µM. Also, the IC50 is above 10000 nM with MKN-45 [2], 59 µM in data set [3], 1600 nM with P388 [4] and above 200 µM in data set [8]. Further, the EC50 is above 50 µM at DNA topoisomerase II and above 10000 nM on DNA topoisomerase 1.

In the data set with P388 [1], `O=C1c2c(c3c4cccc(O)c4n(C4OC(CO)C(O)C(O)C4O)c3c3[nH]c4c(O)cccc4c23)C(=O)N1NCC(O)CO` (stereo not given) registered an EC200 of 0.7 µM. Also, the IC50 is 79 nM in the data set with MKN-45 [2]; above 200 µM in data set [3]; 29 nM in the data set on P388 [4]; 79 nM in the data set with MKN-45 [6]; 180 µM in [8]. In the data set on Mus musculus, this molecule yielded a GID75 of 290 mg/me2. The Activity in [5] was found to be 1.1 Ratio. The LD10 in [7] came out at 330 mg/me2. Also, the EC50 at DNA topoisomerase 1 stood at 1000 nM.

As for `NC(=O)NN1C(=O)c2c(c3c4cccc(O)c4n(C4OC(CO)C(O)C(O)C4O)c3c3[nH]c4c(O)cccc4c23)C1=O` (stereo not given), in the data set on P388 [1], the EC200 was found to be 2.8 µM. Moreover, the IC50 in the data set with MKN-45 [2] is 270 nM; in data set [3], above 200 µM; with P388 [4] it was 35 nM; in data set [8], above 200 µM. Further, the EC50 on DNA topoisomerase II was above 50 µM; at DNA topoisomerase 1, 360 nM.

In turn, `O=C(CO)NN1C(=O)c2c(c3c4cccc(O)c4n(C4OC(CO)C(O)C(O)C4O)c3c3[nH]c4c(O)cccc4c23)C1=O` (stereo not given) registered an EC200 in the data set with P388 [1] of 5 µM. Also, the IC50 is 660 nM with MKN-45 [2]; above 200 µM in data set [3]; 240 nM with P388 [4]; 660 nM in the data set with MKN-45 [6]; above 200 µM in data set [8]. Besides, the GID75 in the data set with Mus musculus was 1200 mg/me2. In addition, the Activity in data set [5] is above 1.3 Ratio. This molecule also had an LD10 in data set [7] above 1500 mg/me2. In addition, the EC50 on DNA topoisomerase II is above 50 µM; at DNA topoisomerase 1 it was 2800 nM.

Consider `CCNN1C(=O)c2c(c3c4cccc(O)c4n(C4OC(CO)C(O)C(O)C4O)c3c3[nH]c4c(O)cccc4c23)C1=O` (stereo not given), for which the EC200 in the data set on P388 [1] is 1.2 µM. Also, the IC50 with MKN-45 [2] is 59 nM; in data set [3], above 200 µM; in the data set on P388 [4], 18 nM; in the data set on MKN-45 [6], 59 nM; in data set [8], above 200 µM. Also, the GID75 with Mus musculus is above 1500 mg/me2. Also, the LD10 in [7] is reported as above 1500 mg/me2. In addition, the concentration giving a half-maximal response (EC50) is above 50 µM on DNA topoisomerase II and 3500 nM on DNA topoisomerase 1.

For the molecule `O=CNN1C(=O)c2c(c3c4cccc(O)c4n(C4OC(CO)C(O)C(O)C4O)c3c3[nH]c4c(O)cccc4c23)C1=O` (stereo not given), the EC200 in the data set on P388 [1] was determined as 1.4 µM. Besides, the IC50 in the data set with MKN-45 [2] was 310 nM; in data set [3], above 200 µM; in the data set on P388 [4], 75 nM; in the data set with MKN-45 [6] it was 310 nM; in data set [8], above 200 µM. In the data set with Mus musculus, this molecule yielded a GID75 of 1152 mg/me2. Further, the Activity in [5] came to 1.4 Ratio. The LD10 in [7] is given as 1600 mg/me2. In addition, the figures for the EC50 at DNA topoisomerase II and at DNA topoisomerase 1 were above 50 µM and 700 nM, respectively.
